Test results reported in PMC4503722, “Novel Phenotypic Outcomes Identified for a Public Collection of Approved Drugs from a Publicly Accessible Panel of Assays” (PLoS ONE, 2015).
pEC50, pIC50: −log10 of the molar value. Read-outs that look alike come from different tables or passages of the source.

Experiments:
INS-1E cells = experiment: cells; format: cell-based, rat
hJAK2 = molecular target: T1, hJAK2 (Homo sapiens, UniProt O60674); experiment: Cerep LANCE kinase assay hJAK2 (S1 assay 33); format: biochemical; settings: kinase assay; read-out: JAK2
T1 construct: purchased Cerep (LANCE kinase assay platform, contract assay)
T1 sequence (O60674 whole entry): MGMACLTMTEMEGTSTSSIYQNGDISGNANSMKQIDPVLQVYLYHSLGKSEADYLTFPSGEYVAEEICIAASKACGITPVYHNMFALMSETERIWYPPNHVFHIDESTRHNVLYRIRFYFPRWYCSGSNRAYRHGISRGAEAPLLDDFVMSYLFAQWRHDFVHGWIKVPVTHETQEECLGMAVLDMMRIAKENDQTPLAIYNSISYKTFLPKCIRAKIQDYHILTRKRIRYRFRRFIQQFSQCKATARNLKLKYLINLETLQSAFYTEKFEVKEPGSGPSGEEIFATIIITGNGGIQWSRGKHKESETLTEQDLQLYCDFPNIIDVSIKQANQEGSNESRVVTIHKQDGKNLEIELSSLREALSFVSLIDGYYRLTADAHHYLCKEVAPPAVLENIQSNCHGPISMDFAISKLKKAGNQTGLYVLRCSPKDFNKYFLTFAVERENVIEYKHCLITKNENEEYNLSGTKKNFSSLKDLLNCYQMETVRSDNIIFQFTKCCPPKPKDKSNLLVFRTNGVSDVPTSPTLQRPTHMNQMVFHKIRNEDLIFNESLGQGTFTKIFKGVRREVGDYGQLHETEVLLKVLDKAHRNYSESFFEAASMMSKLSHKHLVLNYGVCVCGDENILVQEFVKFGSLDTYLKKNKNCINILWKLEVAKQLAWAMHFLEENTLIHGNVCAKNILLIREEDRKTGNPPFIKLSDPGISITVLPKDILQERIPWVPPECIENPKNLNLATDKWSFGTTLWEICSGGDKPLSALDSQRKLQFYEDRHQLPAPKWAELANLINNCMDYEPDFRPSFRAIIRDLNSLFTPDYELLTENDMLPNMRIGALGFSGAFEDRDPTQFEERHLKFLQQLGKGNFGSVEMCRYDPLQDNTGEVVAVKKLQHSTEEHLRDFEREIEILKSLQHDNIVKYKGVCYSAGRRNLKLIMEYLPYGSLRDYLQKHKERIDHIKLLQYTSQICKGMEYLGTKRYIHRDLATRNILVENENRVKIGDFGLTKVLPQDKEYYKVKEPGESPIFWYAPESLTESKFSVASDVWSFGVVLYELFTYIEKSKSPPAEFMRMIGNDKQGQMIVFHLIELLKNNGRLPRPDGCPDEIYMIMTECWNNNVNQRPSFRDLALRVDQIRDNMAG

NCI-H716 cells = experiment: cells; format: cell-based, Human
SW480 = experiment: cells; format: cell-based; settings: Homo sapiens
HCT116 = experiment: cells; format: cell-based; settings: Homo sapiens
SNU-C1 = experiment: cells; format: cell-based; settings: Homo sapiens
hFLT3 = molecular target: T2, hFLT3 (Homo sapiens, UniProt P36888); experiment: Cerep LANCE kinase assay hFLT3 (S1 assay 35); format: biochemical; settings: kinase assay; read-out: FLT3
T2 construct: purchased Cerep (LANCE kinase assay platform, contract assay)
T2 sequence (P36888 27-993): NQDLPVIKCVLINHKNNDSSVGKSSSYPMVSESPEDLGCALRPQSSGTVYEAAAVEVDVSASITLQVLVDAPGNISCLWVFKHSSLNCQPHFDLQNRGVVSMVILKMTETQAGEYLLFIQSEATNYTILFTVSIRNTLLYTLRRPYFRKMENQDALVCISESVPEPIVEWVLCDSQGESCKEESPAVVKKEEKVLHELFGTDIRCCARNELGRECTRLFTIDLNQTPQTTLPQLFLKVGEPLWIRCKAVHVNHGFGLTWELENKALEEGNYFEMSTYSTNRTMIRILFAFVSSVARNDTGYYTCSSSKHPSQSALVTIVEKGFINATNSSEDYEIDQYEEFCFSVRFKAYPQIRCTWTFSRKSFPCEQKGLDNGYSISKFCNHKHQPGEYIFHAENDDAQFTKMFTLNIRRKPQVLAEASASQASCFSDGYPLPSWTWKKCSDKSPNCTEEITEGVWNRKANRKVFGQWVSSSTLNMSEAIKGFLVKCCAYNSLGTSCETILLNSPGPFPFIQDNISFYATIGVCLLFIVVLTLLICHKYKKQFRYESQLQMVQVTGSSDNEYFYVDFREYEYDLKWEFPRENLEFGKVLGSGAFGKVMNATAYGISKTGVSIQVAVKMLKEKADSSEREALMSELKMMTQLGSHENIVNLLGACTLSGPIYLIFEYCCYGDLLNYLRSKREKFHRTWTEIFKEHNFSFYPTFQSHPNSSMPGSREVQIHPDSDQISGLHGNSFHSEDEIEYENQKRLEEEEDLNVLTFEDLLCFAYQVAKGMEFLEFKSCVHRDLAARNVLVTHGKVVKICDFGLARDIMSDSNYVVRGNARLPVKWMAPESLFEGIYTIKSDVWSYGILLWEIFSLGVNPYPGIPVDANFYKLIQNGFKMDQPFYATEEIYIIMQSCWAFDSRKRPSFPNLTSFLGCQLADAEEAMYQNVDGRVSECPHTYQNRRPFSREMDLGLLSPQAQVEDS

Colo320 = experiment: cells; format: cell-based; settings: Homo sapiens
HT-29 = experiment: cells; format: cell-based; settings: Homo sapiens
[1] = test system: endothelial tube formation in co-cultures of ECFCs and ADSCs treated with VEGF; experiment: cells; format: cell-based, human
hp70S6K1 (RPS6KB1) = molecular target: T3, hp70S6K1 (RPS6KB1) (Homo sapiens, UniProt P23443); experiment: Cerep LANCE kinase assay hp70S6K1 (S1 assay 31); format: biochemical; settings: kinase assay; read-out: p70S6K1
T3 construct: purchased Cerep (LANCE kinase assay platform, contract assay)
T3 sequence (P23443 whole entry): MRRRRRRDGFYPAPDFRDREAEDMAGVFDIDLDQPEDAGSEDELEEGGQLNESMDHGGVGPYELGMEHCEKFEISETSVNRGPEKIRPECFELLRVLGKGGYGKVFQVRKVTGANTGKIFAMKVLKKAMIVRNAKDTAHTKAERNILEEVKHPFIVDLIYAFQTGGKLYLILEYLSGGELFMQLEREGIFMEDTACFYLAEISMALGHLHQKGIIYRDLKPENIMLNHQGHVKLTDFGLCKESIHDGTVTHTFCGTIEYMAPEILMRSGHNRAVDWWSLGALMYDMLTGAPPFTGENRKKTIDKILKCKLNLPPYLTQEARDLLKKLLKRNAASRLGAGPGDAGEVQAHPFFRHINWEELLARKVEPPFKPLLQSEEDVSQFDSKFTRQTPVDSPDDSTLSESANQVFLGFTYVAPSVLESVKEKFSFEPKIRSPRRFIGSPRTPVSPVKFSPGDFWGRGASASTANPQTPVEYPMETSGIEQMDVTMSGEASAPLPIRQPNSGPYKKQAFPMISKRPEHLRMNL

[2] = test system: HCT116 cells treated with a GSK3β inhibitor; experiment: cells; format: cell-based; settings: Homo sapiens
hKDR = molecular target: T4, hKDR (Homo sapiens, UniProt P35968); experiment: Cerep LANCE kinase assay hKDR (S1 assay 32); format: biochemical; settings: kinase assay; read-out: KDR
T4 construct: purchased Cerep (LANCE kinase assay platform, contract assay)
T4 sequence (P35968 20-1356): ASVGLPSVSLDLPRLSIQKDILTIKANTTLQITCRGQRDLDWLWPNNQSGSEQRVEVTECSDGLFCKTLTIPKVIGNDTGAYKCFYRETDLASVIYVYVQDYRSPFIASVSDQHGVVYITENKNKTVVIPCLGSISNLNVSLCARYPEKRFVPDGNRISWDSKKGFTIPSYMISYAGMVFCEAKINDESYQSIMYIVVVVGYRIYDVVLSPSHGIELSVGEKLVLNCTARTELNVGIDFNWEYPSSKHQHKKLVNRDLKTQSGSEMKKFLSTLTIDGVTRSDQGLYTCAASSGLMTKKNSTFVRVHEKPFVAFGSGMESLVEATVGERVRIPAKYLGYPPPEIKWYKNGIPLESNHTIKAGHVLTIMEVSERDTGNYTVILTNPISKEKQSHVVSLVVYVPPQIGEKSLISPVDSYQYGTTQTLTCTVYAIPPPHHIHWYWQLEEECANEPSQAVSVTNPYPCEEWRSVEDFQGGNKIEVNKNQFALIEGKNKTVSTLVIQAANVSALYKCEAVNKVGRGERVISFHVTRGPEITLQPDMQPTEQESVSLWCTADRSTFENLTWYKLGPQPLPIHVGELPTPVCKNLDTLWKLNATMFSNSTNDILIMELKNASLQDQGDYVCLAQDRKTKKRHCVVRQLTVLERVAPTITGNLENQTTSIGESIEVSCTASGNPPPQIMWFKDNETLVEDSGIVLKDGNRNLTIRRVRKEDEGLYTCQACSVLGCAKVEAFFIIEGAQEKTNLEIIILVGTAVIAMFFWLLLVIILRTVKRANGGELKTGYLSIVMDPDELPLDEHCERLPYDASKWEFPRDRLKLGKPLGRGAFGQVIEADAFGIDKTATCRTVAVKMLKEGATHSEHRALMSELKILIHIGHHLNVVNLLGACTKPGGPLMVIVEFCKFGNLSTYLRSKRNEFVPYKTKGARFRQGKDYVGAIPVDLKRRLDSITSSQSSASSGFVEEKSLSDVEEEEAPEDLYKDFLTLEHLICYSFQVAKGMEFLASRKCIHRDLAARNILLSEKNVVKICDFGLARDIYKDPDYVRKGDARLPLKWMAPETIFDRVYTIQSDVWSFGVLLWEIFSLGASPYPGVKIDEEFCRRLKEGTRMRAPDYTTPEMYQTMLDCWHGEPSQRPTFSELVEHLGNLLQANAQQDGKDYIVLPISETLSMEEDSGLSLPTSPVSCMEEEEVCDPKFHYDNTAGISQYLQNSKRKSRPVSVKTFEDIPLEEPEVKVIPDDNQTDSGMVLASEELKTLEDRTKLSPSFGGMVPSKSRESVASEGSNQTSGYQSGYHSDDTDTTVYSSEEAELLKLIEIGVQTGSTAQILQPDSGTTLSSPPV

HeLa cells = experiment: cells; format: cell-based; settings: Homo sapiens, HeLa, HeLa, read-out: CellCycle G2/M
hGSK3b = molecular target: T5, hGSK3b (Homo sapiens, UniProt P49841); experiment: Cerep LANCE kinase assay hGSK3b (S1 assay 34); format: biochemical; settings: kinase assay; read-out: GSK3b
T5 construct: purchased Cerep (LANCE kinase assay platform, contract assay)
T5 sequence (P49841 whole entry): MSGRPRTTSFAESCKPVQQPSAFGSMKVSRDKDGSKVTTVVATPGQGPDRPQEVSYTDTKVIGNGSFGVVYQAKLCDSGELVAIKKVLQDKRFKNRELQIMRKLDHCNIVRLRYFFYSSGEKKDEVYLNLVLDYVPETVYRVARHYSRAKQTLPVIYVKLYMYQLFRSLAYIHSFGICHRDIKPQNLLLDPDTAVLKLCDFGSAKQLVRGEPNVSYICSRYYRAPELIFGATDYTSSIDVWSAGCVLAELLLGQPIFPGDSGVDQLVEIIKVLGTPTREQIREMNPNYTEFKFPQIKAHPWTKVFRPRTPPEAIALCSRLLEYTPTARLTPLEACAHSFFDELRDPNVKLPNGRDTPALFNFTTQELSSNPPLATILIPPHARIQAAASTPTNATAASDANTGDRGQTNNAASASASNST

RKO = experiment: cells; format: cell-based; settings: Homo sapiens, RKO, read-out: Basal_Viability ATP RKO
[3] = test system: nuclear β-catenin in C2C12 cells; experiment: cells; format: cell-based
DLD-1 = experiment: cells; format: cell-based; settings: Homo sapiens
[4] = Rattus norvegicus, INS-1E; read-out: Insulin Secretion
[5] = Homo sapiens, NCI-H716; read-out: GLP 1 Secretion
[6] = SW480, basal, SW480, read-out: Basal_Viability ATP SW480
[7] = HCT-116, basal, HCT116, read-out: Basal_Viability ATP HCT116
[8] = SNU-C1, basal, SNU-C1, read-out: Basal_Viability ATP SNU-C1
[9] = basal, Colo 320, read-out: Basal_Viability ATP Colo 320
[10] = basal, HT-29, read-out: Basal_Viability ATP HT-29
[11] = Homo sapiens; read-out: Anti-Angiogenesis
[12] = S2 Table, 20 = no response at highest concentration
[13] = Mus musculus, C2C12; read-out: Wnt Pathway
[14] = DLD-1, basal, DLD-1, read-out: Basal_Viability ATP DLD-1
[15] = Rattus norvegicus, INS-1E, read-out: Insulin Secretion
[16] = Homo sapiens, NCI-H716, read-out: GLP 1 Secretion
[17] = SW480, read-out: Basal_Viability ATP SW480
[18] = HCT-116, read-out: Basal_Viability ATP HCT116
[19] = SNU-C1, read-out: Basal_Viability ATP SNU-C1
[20] = COLO 320, read-out: Basal_Viability ATP Colo 320
[21] = HT-29, read-out: Basal_Viability ATP HT-29
[22] = Homo sapiens, read-out: Anti-Angiogenesis
[23] = HCT-116, read-out: GSK3b inh pretreated_Viability ATP HCT116
[24] = Mus musculus, C2C12, read-out: Wnt Pathway
[25] = DLD-1, read-out: Basal_Viability ATP DLD-1

SMILES	pEC50 (INS-1E cells; [4])	pIC50 (hJAK2)	pEC50 (NCI-H716 cells; [5])	pIC50 (SW480; [6])	pIC50 (HCT116; [7])	pIC50 (SNU-C1; [8])	pIC50 (hFLT3)	pIC50 (Colo320; [9])	pIC50 (HT-29; [10])	pIC50 [1, 11]	pIC50 (hp70S6K1 (RPS6KB1))	pIC50 (hKDR)	pEC50 (HeLa cells; [12])	pIC50 (hGSK3b)	pIC50 (RKO; basal)	pEC50 [3, 13]	pIC50 (DLD-1; [14])	pEC50 (INS-1E cells; [15])	pEC50 (NCI-H716 cells; [16])	pIC50 (SW480; [17])	further results
COC(=O)Nc1nc2ccc(Sc3ccccc3)cc2[nH]1 [Fenbendazole]	< 5.00	< 4.70	< 4.70	< 4.70	9.00	< 4.70	< 4.70	< 4.70	< 4.70	6.68	< 4.70	< 4.70	6.71	< 4.70	9.00	6.36	7.17				pIC50 ([2]; HCT-116, HCT116 pretreated with GSK3b inhibitor, read-out: GSK3b inh pretreated_Viability ATP HCT116): 8.52
Cc1cc(O)c2c3c4c(cc(O)c13)C(C)(C)C(=O)c1c(O)cc(O)c(c1-4)C2=O [Heliomycin]		< 4.70					5.71				< 4.70	< 4.70		5.16				< 5.00	< 5.00	7.24	pIC50 (HCT116; [18]): 7.11; pIC50 (SNU-C1; [19]): 6.48; pIC50 (Colo320; [20]): 7.09; pIC50 (HT-29; [21]): 5.52; pIC50 [1, 22]: 7.00; pIC50 [2, 23]: 7.24; pEC50 (HeLa cells): < 5.00; pIC50 (RKO): 7.12; pEC50 [3, 24]: 5.97; pIC50 (DLD-1; [25]): 7.15
COc1c(C)c2c(c(O)c1C/C=C(\C)CCC(=O)O)C(=O)OC2 [Mycophenolate]		< 4.70					< 4.70				< 4.70	< 4.70		< 4.70				< 5.00	< 5.00	5.59	pIC50 (HCT116; [18]): 7.17; pIC50 (SNU-C1; [19]): < 4.70; pIC50 (Colo320; [20]): 9.00; pIC50 (HT-29; [21]): < 4.70; pIC50 [1, 22]: 5.90; pIC50 [2, 23]: 7.30; pEC50 (HeLa cells): < 5.00; pIC50 (RKO): 6.78; pEC50 [3, 24]: < 5.00; pIC50 (DLD-1; [25]): < 4.70
COC(=O)Nc1nc2ccc(C(=O)C3CC3)cc2[nH]1 [Ciclobendazole]	< 5.00	< 4.70	< 5.00	< 4.70	6.76	< 4.70	5.21	6.81	5.77	5.92	< 4.70	4.82	6.38	4.83	6.79	6.46	5.26				
